Experimental findings from patent US6410566B1, “Cyclic amine derivatives and their use as drugs” (Teijin Limited, priority 2000, dated 2002) are described below.

By inhibition is commonly meant the relative decrease from the control value, in per cent. A low value points to a weak effect.

One assay has as its target T1, binding of human MCP-1 to THP-1 cells (Homo sapiens, UniProt P41597).
T1 construct: endogenous in cells; host or cells: THP-1 (human monocytic leukemia cell line), whole cells
T1 sequence (P41597 1-360 isoform P41597-2): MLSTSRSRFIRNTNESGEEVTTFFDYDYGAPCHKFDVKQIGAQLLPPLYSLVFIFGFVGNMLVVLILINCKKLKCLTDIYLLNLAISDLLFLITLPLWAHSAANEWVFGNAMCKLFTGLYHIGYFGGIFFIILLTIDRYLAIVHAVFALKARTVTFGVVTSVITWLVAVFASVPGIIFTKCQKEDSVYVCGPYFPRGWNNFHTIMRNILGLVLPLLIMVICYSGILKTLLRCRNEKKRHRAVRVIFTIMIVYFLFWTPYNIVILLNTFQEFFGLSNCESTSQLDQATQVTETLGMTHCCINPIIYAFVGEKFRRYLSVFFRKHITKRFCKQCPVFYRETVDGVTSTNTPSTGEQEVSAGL
Nature of the assay: Inhibition of binding of [125I]-labeled baculovirus expressed human MCP-1 to THP-1 cells (Method 1). The settings on record: Method 1, at 10 μM. An excerpt: Measurement of Inhibition of MCP-1 Binding to THP-1 Cells 1. Construction of recombinant baculovirus carrying the human MCP-1 gene Based on the previously published human MCP-1 gene sequence (for example T. Yoshirnura et al., FEBS Lett., 1989, 244, 487-493), two synthetic DNA primers ([NT] and [NT]) flanked by restriction enzyme sites were used to amplify a DNA fragment from cDNA derived from human endothelial cells (purchased from Kurabow Co.); the amplified fragment was cut with the restriction enzymes (PstI and XbaI), ligated into a transfer vector pVL1393 (Invitrogen Co.), and the resulting vector was co-transfected along with infectious baculovirus into Sf-9 insect cells and the supernatant was plaque assayed to yield human MCP-1 gene baculovirus recombinant. […] Using the method of K. Ishii et al. […] The culture supernatant was affinity purified using a heparin Sepharose column (Pharmacia Co.) and then further purified using reverse phase HPLC (Vydac C18 column) to prepare purified human MCP-1. […] 3-1. […] The test. compound was diluted in the assay buffer and used as the test compound solution. [^125I]-labeled human MCP-1 described above was diluted in assay buffer to 1 mCi/mL and used as the labeled ligand solution. In a 96 well filter plate (Millipore Co.), 25 μL of test compound solution, 25 μL of labeled ligand solution and 50 μL of cell suspension were aliquoted into each well in this order, stirred (total reaction volume 100 μL), and incubated for one hour at 18° C. After the reaction, the reaction solution was filtered, and the filter was washed twice with 200 μL of cold PBS (200 μL of cold PBS was added and then filtered). The filter was air-dried and 25 μL of liquid sciatillator was added into each well. The radioactivity retained by the cells on the filter were measured using TopCount (Packard Instrument Co.). To calculate the ability of test compound to inhibit binding of human MCP-1 to THP-1 cells, non-specific binding determined by adding 100 ng of unlabeled human MCP-1 in place of the test compound was subtracted, while the counts with no test compound added was taken as 100%. Inhibition (%)=(1-(A-B)/(C-B))×100 (A, counts with test compound added; B, counts with 100 ng of unlabeled human MCP-1 added; C, counts with [^125I]-labeled human MCP-1 added).
Regarding `NC(=O)c1ccc(CN2CCC(CNC(=O)CNC(=O)c3cccc(C(F)(F)F)c3)CC2)cc1` [Compound No. 925, 1-(4-Carbamoylbenzyl)-4-[{N-(3-(trifluoromethyl)benzoyl)glycyl}aminomethyl]piperidine], the inhibition at 10 µM lay in the range of 20 to 50%.
Same read-out and setting: for `Nc1ccc(CN2CCC(CNC(=O)CNC(=O)c3cccc(C(F)(F)F)c3)CC2)cc1` [Compound No. 516, 1-(4-Aminobenzyl)-4-[{N-(3-(trifluoromethyl)benzoyl)glycyl}aminomethyl]piperidine] the value was 20 to 50%.

The assay is the same for the next values; noted with them: Method 1, at 100 μM.
Take `O=C(CNC(=O)Nc1ccc(C(F)(F)F)cc1)NCC1CCN(Cc2ccc(Cl)cc2)CC1` [Compound No. 852, 1-(4-Chlorobenzyl)-4-[{2-(3-(4-trifluoromethylphenyl)ureido)acetylamino}methyl]piperidine]: the inhibition at 100 µM is over 80%.
The molecule `Cc1cccc(C(=O)NCC(=O)NC2CCCN(Cc3ccc(Cl)cc3)C2)c1` (centres unmarked) [Compound No. 355, 1-(4-Chlorobenzyl)-3-[{N-(3-methylbenzoyl)glycyl}amino]piperidine] came in with an inhibition at 100 µM of over 80%.

The next assay deals with T1, binding of human MCP-1 to THP-1 cells. The assay can be described thus: Inhibition of binding of [125I]-labeled baculovirus expressed human MCP-1 to THP-1 cells (Method 2). The conditions noted are these: Method 2, at 1 μM. The text has this: 1. Construction of recombinant baculovirus carrying the human MCP-1 gene
Based on the previously published human MCP-1 gene sequence (for example T. Yoshirnura et al., FEBS Lett., 1989, 244, 487-493), two synthetic DNA primers (5′-[…]-3′ and 5′-[…]-3′) flanked by restriction enzyme sites were used to amplify a DNA fragment from cDNA derived from human endothelial cells (purchased from Kurabow Co.); the amplified fragment was cut with the restriction enzymes (PstI and XbaI), ligated into a transfer vector pVL1393 (Invitrogen Co.), and the resulting vector was co-transfected along with infectious baculovirus into Sf-9 insect cells and the supernatant was plaque assayed to yield human MCP-1 gene baculovirus recombinant.
2. Synthesis of [^125I]-labeled human MCP-1 expressed in baculovirus
Using the method of K. Ishii et al. (Biochem Biophys Research Communications, 1995, 206, 955-961), 5×10^6 Sf-6 insect cells was infected with 5×10^7 PFU (plaque forming units) of the above human MCP-1 recombinant baculovirus and cultured for 7 days in Ex-Cell 401 medium. The culture supernatant was affinity purified using a heparin Sepharose column (Pharmacia Co.) and then further purified using reverse phase HPLC (Vydac C18 column) to prepare purified human MCP-1. The purified human MCP-1 was protein labeled by Amersham Co. using the Bolton Hunter method to yield [^125I]-labeled baculovirus expressed human MCP-1 (specific activity 2000 Ci/mmol).
3-2. Measurement of inhibition of binding of [^125I]-labeled baculovirus expressed human MCP-1 to THP-1 cells (Method 2)
Human monocytic leukemia cell line THP-1 was suspended in assay buffer (50 mM HEPES, pH 7.4, 1.0 mM CaCl2, 5.0% mM MgCl2, 0.5% BSA) to give a cell suspension of a concentration of 1×10^7 cells/mL. The test compound was diluted in the assay buffer and used as the test compound solution. [^125I]-labeled human MCP-1 described above was diluted in assay buffer to 1 mCi/mL and used as the labeled ligand solution. In a 96 well filter plate (Millipore Co.), 25 μL of test compound solution, 25 μL of labeled ligand solution and 50 μL of cell suspension were aliquoted into each well in this order, stirred (total reaction volume 100 μL), and incubated for one hour at 18° C.
After the reaction, the reaction solution was filtered, and the filter was washed twice with 200 μL of cold PBS (200 μL of cold PBS was added and then filtered). The filter was air-dried and 25 μL of liquid scintillator was added into each well. The radioactivity retained by the cells on the filter were measured using TopCount (Packard Instrument Co.).
To calculate the ability of test compound to inhibit binding of human MCP-1 to THP-1 cells, non-specific binding determined by adding 100 ng of unlabeled human MCP-1 in place of the test compound was subtracted, while the counts with no test compound added was taken as 100%.
Inhibition (%)={1−(A−B)/(C−B)}×100
(A, counts with test compound added; B, counts with 100 ng of unlabeled human MCP-1 added; C, counts with [^125I]-labeled human MCP-1 added).
With `Nc1ccc(C(F)(F)F)cc1C(=O)NCC(=O)N[C@@H]1CCN(Cc2ccc(Br)cc2F)C1` [Compound No. 2120, (R)-3-[{N-(2-Amino-5-trifluoromethylbenzoyl)glycyl}amino]-1-(4-bromo-2-fluorobenzyl)pyrrolidine], the inhibition at 1 µM is over 80%.
Still for that read-out and setting: with `CCOc1ccc(CN2CCC(CNC(=O)CNC(=O)c3cc(Cl)ccc3N)CC2)cc1` [Compound No. 1429, 4-[{-(2-Amino-5-chlorobenzoyl)glycyl}aminomethyl]-1-(4-ethoxybenzyl)piperidine] the figure was 20 to 50%.
Consider `CS(=O)(=O)N(c1ccc(Br)cc1C(=O)NCC(=O)NCC1CCN(Cc2ccc(Cl)cc2)CC1)S(C)(=O)=O` [Compound No. 1582, 4-[{N-(5-Bromo-2-(bis(methylsulfonyl)amino)benzoyl)glycyl}aminomethyl]-1-(4-chlorobenzyl)piperidine], for which the inhibition at 1 µM fell in the range of 20 to 50%.
On the same count and under the same terms, with `Nc1cc(F)c(F)cc1C(=O)NCC(=O)NCC1CCN(Cc2ccc(Cl)cc2)C1` (centres unmarked) [Compound No. 1506, 3-[{N-(2-Amino-4,5-difluorobenzoyl)glycyl}aminomethyl]-1-(4-chlorobenzyl)pyrrolidine] the figure was 50 to 80%; with `Nc1ccc(OC(F)(F)F)cc1C(=O)NCC(=O)N[C@@H]1CCN(Cc2ccc(Cl)cc2Cl)C1` [Compound No. 1905, (R)-3-[{N-(2-Amino-5-(trifluoromethoxy)benzoyl)glycyl}amino]-1-(2,4-dichlorobenzyl)pyrrolidine], 50 to 80%.
On the same count and under the same terms, for `COc1ccc(CN2CCC(CNC(=O)CNC(=O)c3cc(F)c(F)cc3N)CC2)cc1N` [Compound No. 2113, 4-[{N-(2-amino-4,5-difluorobenzoyl)glycyl}aminomethyl]-1-(3-amino-4-methoxybenzyl)piperidine] the value was over 80%.
Regarding `CS(=O)(=O)Nc1ccc(Br)cc1C(=O)NCC(=O)NCC1CCN(Cc2ccc(Cl)cc2)CC1` [Compound No. 1581, 4-[{N-(5-Bromo-2-(methylsulfonylamino)benzoyl)glycyl}aminomethyl]-1-(4-chlorobenzyl)piperidine], the inhibition at 1 µM fell in the range of 20 to 50%.
On to `CN(C)c1cc(CN2CC[C@@H](NC(=O)CNC(=O)c3cc(C(F)(F)F)ccc3N)C2)ccc1Cl` [Compound No. 2133, (R)-3-[{N-(2-Amino-5-trifluoromethylbenzoyl)glycyl}amino]-1-{4-chloro-3-(dimethylamino)benzyl}pyrrolidine], for which the inhibition at 1 µM is over 80%.
As for `CCOc1ccc(CN2CCC(CNC(=O)CNC(=O)c3cc(F)c(F)cc3N)CC2)cc1OCC` [Compound No. 2065, 4-[{N-(2-amino-4,5-difluorobenzoyl)glycyl}aminomethyl]-1-(3,4-diethoxybenzyl)piperidine], the inhibition at 1 µM is 20 to 50%.
The same measure, in the same setting: with `Nc1cc(CN2CC[C@@H](NC(=O)CNC(=O)c3cc(C(F)(F)F)ccc3N)C2)ccc1O` [Compound No. 2187, (R)-1-(3-Amino-4-hydroxybenzyl)3-[{N-(2Amino-5-trifluoromethylbenzoyl)glycyl}amino]pyrrolidine] the figure was over 80%.
The same measure, in the same setting: with `Nc1ccc(OC(F)(F)F)cc1C(=O)NCC(=O)NCC1CCN(Cc2ccc(Br)cc2)CC1` [Compound No. 1910, 4-[{N-(2-Amino-5-trifluoromethoxybenzoyl)glycyl}aminomethyl]-1-(4-bromobenzyl)piperidine] the figure was 50 to 80%; with `Nc1ccc(Cl)cc1C(=O)NCC(=O)NCC1CCN(Cc2ccc(SC(F)(F)F)cc2)CC1` [Compound No. 1616, 4-[{N-(2-Amino-5-chlorobenzoyl)glycyl}aminomethyl]-1-{4-(trifluoromethylthio)benzyl}piperidine], 20 to 50%; with `Cc1ccc(C(=O)NCC(=O)N[C@@H]2CCN(Cc3ccc(Cl)cc3)C2)cc1Br` [Compound No. 1098, (R)-1-(4-Chlorobenzyl)-3-[{N-(3-bromo-4-methylbenzoyl)glycyl}amino]pyrrolidine], 20 to 50%.
On the same count and under the same terms, for `Nc1cc2c(cc1CN1CC[C@@H](NC(=O)CNC(=O)c3cc(C(F)(F)F)ccc3N)C1)OCO2` [Compound No. 2127, (R)-1-(2-Amino-4,5-methylenedioxybenzyl)-3-[{N-(2-amino-5-trifluoromethylbenzoyl)glycyl}amino]pyrrolidine] the value was over 80%; for `O=C(CNC(=O)c1cccc(C(F)(F)F)c1)NCC1CCN(Cc2ccc(Cl)cc2)C1` (centres unmarked) [Compound No. 1463, 3-[{N-(3-Trifluoromethylbenzoyl)glycyl}aminomethyl]-1-(4-chlorobenzyl)pyrrolidine], 20 to 50%.
For the molecule `CC(C)c1ccc(CN2CCC(CNC(=O)CNC(=O)c3cc(OC(F)(F)F)ccc3N)CC2)cc1` [Compound No. 1903, 4-[{N-(2-Amino-5-trifluoromethoxybenzoyl)glycyl}aminomethyl]-1-(4-isopropylbenzyl)piperidine], the inhibition at 1 µM was in the range of 50 to 80%.
